US9815878B2, “Use of PEDF-derived polypeptides for preventing and/or ameliorating skin aging” (MacKay Memorial Hospital, priority 2012, dated 2017)

What was measured:
type I collagen (COL1A1) = assay: Type I collagen (COL1A1) level in mouse skin by immunoblot; assay type: in vivo, C57BL/6 mice; details: ointment plus microneedle (MN), twice a week for two weeks, day 14; normalized with vehicle/CT
Procedure: Skin tissues were homogenized in ice-cold lysis buffer containing 20 mM HEPES (pH 7.4), 150 mM NaCl, 1% SDS, 1 mM ethylenediamine tetraacetic acid (EDTA), 5 mM phenylmethanesulfonyl fluoride (PMSF), and 1 mM dithiothreitol (DTT), 1% Triton X-100, with freshly added protease inhibitor cocktail (Roche, Indianapolis, Ind.). Homogenates were then centrifuged at 12,000 g for 30 minutes at 4° C., and supernatants were then collected and stored at −70° C. Protein contents in lysates were determined using the Bradford assay. Whole cell lysates were prepared using the above lysis buffer. Aliquots of the lysates were then resolved on a SDS-PAGE and then electrotransferred to polyvinylidene difluoride (PVDF) membranes (Millipore, Bedford, Mass., USA) and processed for immunoblot analysis.
Antibodies used in the immunoblot study included anti-type I collagen 1A1 antibody (1:1000 dilution), anti-MMP-1 antibody (1:500 dilution) and anti-β-actin antibody (1:10000 dilution). Proteins of interest were detected using the appropriate IgG-HRP secondary antibody and ECL reagent (Amersham, Arlington Heights, Ill., USA). X-ray films were scanned on a Model GS-700 Imaging Densitometer (Bio-Rad Laboratories, Hercules, Calif.) and analyzed using Labworks 4.0 software. For quantification, blots from at least three independent experiments were used. […]

dermal collagen = assay: Collagen content of UVB-damaged mouse skin, Masson's trichrome staining; assay type: in vivo, nude mice; details: 8-week UVB, then transdermal delivery for 2 weeks
Procedure: General histology was performed using hematoxylin and eosin (H&E) dye. Deparaffinized skin tissue sections were stained using Masson's Trichrome (Sigma-Aldrich, St. Louis, Mo.) according to the manufacturer's instructions; sections was examined and photographed by a Nikon Eclipse 80i light microscope (original magnification, ×400). For semi-quantitative analysis of collagen area, 10 fields from each slide were randomly selected under the light microscope, and the blue-stained area per entire area of the cross section (mm^2/mm^2) was measured using the Image-Pro Plus 4.5.1 system (Media Cybernetics).
Six-week-old female nude mice (BALB/cAnN.Cg-Foxn1nu/CrlNarl) were irradiated with ultraviolet B (UVB) on the back 5 times a week for an eight-week period using a bank of five UVB lamps (model XL-1000B, Spectrolinker™ apparatus; emission peak: 312 nm), placed about 20 cm above the backs of the animals. During the UVB exposure, the mice were allowed to move freely within the cage. […] The level of BrdU- and vimentin-double positive cells was expressed as the percentage of BrdU- and vimentin-double positive cells per total vimentin-positive cells (the BrdU/Vimentin Labeling Index). […]

dermal fibroblasts = assay: Dermal fibroblast proliferation in vivo, BrdU/vimentin staining of skin sections; parameters: species or system mice; details: normal skin, 16 hours after peptide/MN treatment
Procedure: For animal study, BrdU was reconstituted in DMSO as stock (80 mM). 10 μl of BrdU stock mixed with 90 μl of PBS was intraperitoneally injected into mouse at 16 hours prior to euthanasia. Formalin-fixed, paraffin-embedded skin specimens were deparaffinized in xylene and rehydrated in a graded series of ethanol. The specimens were then exposed to 1 N HCl at room temperature for 1 hour for subsequent immunofluorescence study.
BrdU-labeled DNA was detected by polyclonal anti-BrdU antibody and rhodamine-conjugated donkey anti-rabbit IgG. Nuclei were counterstained with Hoechst 33258 (blue).
To investigate whether the transdermal delivery of the present PEDF peptides promotes the proliferation of dermal fibroblast in vivo, mice were intraperitoneally injected with BrdU and euthanized at 16 hours after the PEDF peptide/MN treatment or the vehicle/MN treatment. Skin sections were stained for vimentin (green) and BrdU (red). The level of BrdU- and vimentin-double positive cells was expressed as the percentage of BrdU- and vimentin-double positive cells per total vimentin-positive cells (the BrdU/Vimentin Labeling Index), and the results are summarized in Table 4.

Substance	COL1A1 Level (fold) (type I collagen (COL1A1))	collagen level in the dermis versus UVB/vehicle group (Masson's trichrome, FIG. 5) (dermal collagen)	BrdU/Vimentin Labeling Index (%) (dermal fibroblasts)
Ac-SLGAEQRTESIIHRALYYDLISSPDIHGT-NH2 [29-mer]	1.7 ± 0.24	significantly enhanced	16.9 ± 1.9
SLGAEQRTESIIHRALYYDL [20-mer, synthetic peptide corresponding to residues 93-112 of human PEDF]	1.8 ± 0.20	significantly enhanced	17.3 ± 3.2
